Reference: US20260022143A1, “Cyclic Peptide Inhibitors of IL-23” (JANSSEN PHARMACEUTICA NV, priority 2022, published 2026)
Starred links: 1 amine or outer side, 2 acyl side, 3 side chain; linkers in the order of their positions; H or OH if unused. Positions of bridges follow the written chain, without caps; N, C: chain ends. Non-standard residues stand in square brackets, D forms with d. Residues, ends and D or L forms follow the SMILES beside them. Groups on a side chain read outwards from the residue. *: point of attachment. X80 = COCC[N+](C)(C)CCCCc1cn(-c2ccc(C[C@H](N[*:1])C(=O)[*:2])cc2)nn1; X51 = C[N+](C)(C)CCCc1cn(-c2ccc(C[C@H](N[*:1])C(=O)[*:2])cc2)nn1; Me3N+(CH2)2O(CH2)2O(CH2)2CO = C[N+](C)(C)CCOCCOCCC(=O)*; Trp(7-Me) = Cc1cccc2c(C[C@H](N)C(=O)O)c[nH]c12; Lys(Me3) = C[N+](C)(C)CCCC[C@H](N)C(=O)O; γGlu = O=C(O)[C@H](CCC(=O)[*:2])N[*:1]; 2Nal = N[C@@H](Cc1ccc2ccccc2c1)C(=O)O; 3Pal = N[C@@H](Cc1cccnc1)C(=O)O; Myristoyl = CCCCCCCCCCCCCC(=O)*; Lys(Me) = CNCCCC[C@H](N)C(=O)O; Chg = N[C@H](C(=O)O)C1CCCCC1; NMeK = CN[C@@H](CCCCN)C(=O)O; Pen = CC(C)(S)[C@H](N)C(=O)O; Lauroyl = CCCCCCCCCCCC(=O)*; Thp = NC1(C(=O)O)CCOCC1; X3 = C[N+](C)(C)CCCCC*; AEEA = NCCOCCOCC(=O)O; Me2NCH2CH2 = CN(C)CC*; Sar = CNCC(=O)O

Test: Exposed Polar Surface Area (EPSA)
Assay type: physicochemical
Details: SFC on Chirex 3014 column; sample 1 mM DMSO stock; read-out: EPSA
Procedure, shortened: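 SFC retention on a Chirex 3014 (S)-valine/(R)-1-(α-naphthyl)ethylamine column, 35 °C, CO2 with MeOH (20 mM ammonium formate) gradient 5–60% at 20%/min, 14 MPa outlet. Retention times converted to EPSA (Å^2) via linear calibration with 8 standards; samples from 1 mM DMSO stock, run in duplicate.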

Structure (SMILES)	EPSA [A^2]
CC(=O)N(C)CCCC[C@@H]1NC(=O)[C@H](Cc2c[nH]c3c(C)cccc23)NC(=O)[C@H]([C@@H](C)O)NC(=O)[C@H](CC(=O)N(C)C)NC(=O)[C@@H](NC(=O)CCOCCOCC[N+](C)(C)C)C(C)(C)SSC(C)(C)[C@@H](C(=O)N[C@@H](Cc2ccc(OCCCCC[N+](C)(C)C)cc2)C(=O)N[C@@H](Cc2ccc3ccccc3c2)C(=O)NC2(C(=O)N[C@@H](C)C(=O)N[C@@H](CC(N)=O)C(=O)N[C@@H](Cc3cccnc3)C(=O)N(C)CC(=O)N(C)C)CCOCC2)NC1=O [compound 316, cPEG3aCO-Pen(3)-N(N(Me)2)-T-7MeW-K(NMeAc)-Pen(3)-TMAPF-2Nal-THP-A-N-3Pya-Sar-CON(Me)2] ({Me3N+(CH2)2O(CH2)2O(CH2)2CO}-[Pen]D(NMe2)T[Trp(7-Me)][Lys(Me)](Ac)[Pen]Y(X3)[2Nal][Thp]AN[3Pal][Sar]-NMe2; disulfide 1-6)	154
CC(=O)NCCCC[C@@H]1NC(=O)[C@H](Cc2c[nH]c3c(C)cccc23)NC(=O)[C@H]([C@@H](C)O)NC(=O)[C@H](CC(N)=O)NC(=O)[C@@H](NC(=O)CCOCCOCC[N+](C)(C)C)C(C)(C)SSC(C)(C)[C@@H](C(=O)N[C@@H](Cc2ccc(OCCCCC[N+](C)(C)C)cc2)C(=O)N[C@@H](Cc2ccc3ccccc3c2)C(=O)NC2(C(=O)N[C@@H](C)C(=O)N[C@@H](CC(N)=O)C(=O)N[C@@H](Cc3cccnc3)C(=O)N(C)CC(=O)N(C)C)CCOCC2)NC1=O [compound 317, cPEG3aCO-Pen(3)-N-T-7MeW-K(Ac)-Pen(3)-TMAPF-2Nal-THP-A-N-3Pya-Sar-CON(Me)2] ({Me3N+(CH2)2O(CH2)2O(CH2)2CO}-[Pen]NT[Trp(7-Me)]K(Ac)[Pen]Y(X3)[2Nal][Thp]AN[3Pal][Sar]-NMe2; disulfide 1-6)	158
CC(=O)N(C)CCCC[C@@H]1NC(=O)[C@H](Cc2c[nH]c3c(C)cccc23)NC(=O)[C@H]([C@@H](C)O)NC(=O)[C@H](CC(=O)N(C)C)NC(=O)[C@@H](NC(=O)CCOCCOCC[N+](C)(C)C)C(C)(C)SSC(C)(C)[C@@H](C(=O)N[C@@H](Cc2ccc(OCCCCC[N+](C)(C)C)cc2)C(=O)N[C@@H](Cc2ccc3ccccc3c2)C(=O)N[C@H](C(=O)N[C@@H](CCCCN(C)C(C)=O)C(=O)N[C@@H](CC(N)=O)C(=O)N[C@@H](Cc2cccnc2)C(=O)N(C)CC(=O)N(C)C)C2CCCCC2)NC1=O [compound 340, cPEG3aCO-Pen(3)-N(N(Me)2)-T-7MeW-K(NMeAc)-Pen(3)-TMAPF-2Nal-Chg-K(NMeAc)-N-3Pya-Sar-CON(Me)2] ({Me3N+(CH2)2O(CH2)2O(CH2)2CO}-[Pen]D(NMe2)T[Trp(7-Me)][Lys(Me)](Ac)[Pen]Y(X3)[2Nal][Chg][Lys(Me)](Ac)N[3Pal][Sar]-NMe2; disulfide 1-6)	155
CC(=O)N[C@H](CCCNC(=N)N)C(=O)N[C@@H]1C(=O)N[C@@H](CC(=O)N(C)C)C(=O)N[C@@H]([C@@H](C)O)C(=O)N[C@@H](Cc2c[nH]c3c(C)cccc23)C(=O)N[C@@H](CCCCN(C)C(C)=O)C(=O)N[C@H](C(=O)N[C@@H](Cc2ccc(OCCCCC[N+](C)(C)C)cc2)C(=O)N[C@@H](Cc2ccc3ccccc3c2)C(=O)NC2(C(=O)N[C@@H](CCCCN(C)C(C)=O)C(=O)N[C@@H](CC(N)=O)C(=O)N[C@@H](Cc3cccnc3)C(=O)N(C)CC(=O)N(C)C)CCOCC2)C(C)(C)SSC1(C)C [compound 345, MeCO-r-Pen(3)-N(N(Me)2)-T-7MeW-K(NMeAc)-Pen(3)-TMAPF-2Nal-THP-K(NMeAc)-N-3Pya-Sar-CON(Me)2] (Ac-[dR][Pen]D(NMe2)T[Trp(7-Me)][Lys(Me)](Ac)[Pen]Y(X3)[2Nal][Thp][Lys(Me)](Ac)N[3Pal][Sar]-NMe2; disulfide 2-7)	162
CCCCCCCCCCCCCC(=O)N[C@@H](CCC(=O)NCCOCCOCC(=O)NCCOCCOCC(=O)NCCCC[C@@H](NC(=O)CCOCCOCC[N+](C)(C)C)C(=O)N[C@@H]1C(=O)N[C@@H](CC(=O)N(C)C)C(=O)N[C@@H]([C@@H](C)O)C(=O)N[C@@H](Cc2c[nH]c3c(C)cccc23)C(=O)N[C@@H](CCCCNC(C)=O)C(=O)N[C@H](C(=O)N[C@@H](Cc2ccc(OCCCCC[N+](C)(C)C)cc2)C(=O)N[C@@H](Cc2ccc3ccccc3c2)C(=O)NC2(C(=O)N[C@@H](CCCCN(C)C(C)=O)C(=O)N[C@@H](CC(N)=O)C(=O)N[C@@H](Cc3cccnc3)C(=O)N(C)[C@@H](CCCCNC(=O)COCCOCCNC(=O)COCCOCCNC(=O)CC[C@H](NC(=O)CCCCCCCCCCCCC)C(=O)O)C(N)=O)CCOCC2)C(C)(C)SSC1(C)C)C(=O)O [compound 347, cPEG3aCO-k(PEG2PEG2gEC14)-Pen(3)-N(N(Me)2)-T-7MeW-K(Ac)-Pen(3)-TMAPF-2Nal-THP-K(NMeac)-N-3Pya-NMeK(PEG2PEG2gEC14)-CONH2] ({Me3N+(CH2)2O(CH2)2O(CH2)2CO}-[dK]([AEEA-AEEA-γGlu-Myristoyl])[Pen]D(NMe2)T[Trp(7-Me)]K(Ac)[Pen]Y(X3)[2Nal][Thp][Lys(Me)](Ac)N[3Pal][NMeK]([AEEA-AEEA-γGlu-Myristoyl])-NH2; disulfide 2-7)	187
CCCCCCCCCCCC(=O)N[C@@H](CCC(=O)NCCOCCOCC(=O)NCCOCCOCC(=O)NCCCC[C@@H](NC(=O)CCOCCOCC[N+](C)(C)C)C(=O)N[C@@H]1C(=O)N[C@@H](CC(=O)N(C)C)C(=O)N[C@@H]([C@@H](C)O)C(=O)N[C@@H](Cc2c[nH]c3c(C)cccc23)C(=O)N[C@@H](CCCCNC(C)=O)C(=O)N[C@H](C(=O)N[C@@H](Cc2ccc(OCCCCC[N+](C)(C)C)cc2)C(=O)N[C@@H](Cc2ccc3ccccc3c2)C(=O)NC2(C(=O)N[C@@H](CCCCN(C)C(C)=O)C(=O)N[C@@H](CC(N)=O)C(=O)N[C@@H](Cc3cccnc3)C(=O)N(C)[C@@H](CCCCNC(=O)COCCOCCNC(=O)COCCOCCNC(=O)CC[C@H](NC(=O)CCCCCCCCCCC)C(=O)O)C(N)=O)CCOCC2)C(C)(C)SSC1(C)C)C(=O)O [compound 348, cPEG3aCO-k(PEG2PEG2gEC12)-Pen(3)-N(N(Me)2)-T-7MeW-K(Ac)-Pen(3)-TMAPF-2Nal-THP-K(NMeac)-N-3Pya-NMeK(PEG2PEG2gEC12)-CONH2] ({Me3N+(CH2)2O(CH2)2O(CH2)2CO}-[dK]([AEEA-AEEA-γGlu-Lauroyl])[Pen]D(NMe2)T[Trp(7-Me)]K(Ac)[Pen]Y(X3)[2Nal][Thp][Lys(Me)](Ac)N[3Pal][NMeK]([AEEA-AEEA-γGlu-Lauroyl])-NH2; disulfide 2-7)	184

The remaining lines, values ahead:

EPSA [A^2]	Structure (SMILES)
153	CC(=O)N(C)CCCC[C@@H]1NC(=O)[C@H](Cc2c[nH]c3c(C)cccc23)NC(=O)[C@H]([C@@H](C)O)NC(=O)[C@H](CC(=O)N(C)C)NC(=O)[C@@H](NC(=O)CCOCCOCC[N+](C)(C)C)C(C)(C)SSC(C)(C)[C@@H](C(=O)N[C@@H](Cc2ccc(OCCN(C)C)cc2)C(=O)N[C@@H](Cc2ccc3ccccc3c2)C(=O)NC2(C(=O)N[C@@H](CCCCN(C)C(C)=O)C(=O)N[C@@H](CC(N)=O)C(=O)N[C@@H](Cc3cccnc3)C(=O)N(C)CC(=O)N(C)C)CCOCC2)NC1=O [compound 321, cPEG3aCO-Pen(3)-N(N(Me)2)-T-7MeW-K(NMeAc)-Pen(3)-AEF(N(Me)2)-2Nal-THP-K(NMeAc)-N-3Pya-Sar-CON(Me)2] ({Me3N+(CH2)2O(CH2)2O(CH2)2CO}-[Pen]D(NMe2)T[Trp(7-Me)][Lys(Me)](Ac)[Pen]Y(Me2NCH2CH2)[2Nal][Thp][Lys(Me)](Ac)N[3Pal][Sar]-NMe2; disulfide 1-6)
155	CC(=O)N(C)CCCC[C@H](NC(=O)C1(NC(=O)[C@H](Cc2ccc3ccccc3c2)NC(=O)[C@H](Cc2ccc(OCCCCC[N+](C)(C)C)cc2)NC(=O)[C@H]2NC(=O)[C@H](CCCC[N+](C)(C)C)NC(=O)[C@H](Cc3c[nH]c4c(C)cccc34)NC(=O)[C@H]([C@@H](C)O)NC(=O)[C@H](CC(=O)N(C)C)NC(=O)[C@@H](NC(=O)CCOCCOCC[N+](C)(C)C)C(C)(C)SSC2(C)C)CCOCC1)C(=O)N[C@@H](CC(N)=O)C(=O)N[C@@H](Cc1cccnc1)C(=O)N(C)CC(=O)N(C)C [compound 329, cPEG3aCO-Pen(3)-N(N(Me)2)-T-7MeW-K(Me)3-Pen(3)-TMAPF-2Nal-THP-K(NMeAc)-N-3Pya-Sar-CON(Me)2] ({Me3N+(CH2)2O(CH2)2O(CH2)2CO}-[Pen]D(NMe2)T[Trp(7-Me)][Lys(Me3)][Pen]Y(X3)[2Nal][Thp][Lys(Me)](Ac)N[3Pal][Sar]-NMe2; disulfide 1-6)
155	CC(=O)N(C)CCCC[C@@H]1NC(=O)[C@H](Cc2c[nH]c3c(C)cccc23)NC(=O)[C@H]([C@@H](C)O)NC(=O)[C@H](CC(=O)N(C)C)NC(=O)[C@@H](NC(=O)CCOCCOCC[N+](C)(C)C)C(C)(C)SSC(C)(C)[C@@H](C(=O)N[C@@H](Cc2ccc(-n3cc(CCC[N+](C)(C)C)nn3)cc2)C(=O)N[C@@H](Cc2ccc3ccccc3c2)C(=O)NC2(C(=O)N[C@@H](CCCCN(C)C(C)=O)C(=O)N[C@@H](CC(N)=O)C(=O)N[C@@H](Cc3cccnc3)C(=O)N(C)CC(=O)N(C)C)CCOCC2)NC1=O [compound 334, cPEG3aCO-Pen(3)-N(N(Me)2)-T-7MeW-K(NMeAc)-Pen(3)-F(4TzlTMA3)-2Nal-THP-K(NMeAc)-N-3Pya-Sar-CON(Me)2] ({Me3N+(CH2)2O(CH2)2O(CH2)2CO}-[Pen]D(NMe2)T[Trp(7-Me)][Lys(Me)](Ac)[Pen][X51][2Nal][Thp][Lys(Me)](Ac)N[3Pal][Sar]-NMe2; disulfide 1-6 (inferred))
152	COCC[N+](C)(C)CCCCc1cn(-c2ccc(C[C@H](NC(=O)[C@H]3NC(=O)[C@H](CCCCN(C)C(C)=O)NC(=O)[C@H](Cc4c[nH]c5c(C)cccc45)NC(=O)[C@H]([C@@H](C)O)NC(=O)[C@H](CC(=O)N(C)C)NC(=O)[C@@H](NC(=O)CCOCCOCC[N+](C)(C)C)C(C)(C)SSC3(C)C)C(=O)N[C@@H](Cc3ccc4ccccc4c3)C(=O)NC3(C(=O)N[C@@H](CCCCN(C)C(C)=O)C(=O)N[C@@H](CC(N)=O)C(=O)N[C@@H](Cc4cccnc4)C(=O)N(C)CC(=O)N(C)C)CCOCC3)cc2)nn1 [compound 337, cPEG3aCO-Pen(3)-N(N(Me)2)-T-7MeW-K(NMeAc)-Pen(3)-F(4TzlDMA4mPEG)-2Nal-THP-K(NMeAc)-N-3Pya-Sar-CON(Me)2] ({Me3N+(CH2)2O(CH2)2O(CH2)2CO}-[Pen]D(NMe2)T[Trp(7-Me)][Lys(Me)](Ac)[Pen][X80][2Nal][Thp][Lys(Me)](Ac)N[3Pal][Sar]-NMe2; disulfide 1-6)
